The source made the active and inactive calls. The calls are words filed in the database; no cut-off is given here.
Test system: Cortical neurone
Assay: Neurotrophic activity in Sprague-Dawley rat cortical neurons assessed as promotion of neurite outgrowth at 0.1 to 10 uM
Assay type: functional

| Structure (SMILES) | Activity |
| --- | --- |
| C[C@@H]1CC=C2[C@@]13C[C@@]1(O)OC(OC[C@@]2(C)[C@@]1(C)O)[C@@H]3O | inactive |
| C[C@@H]1CC[C@@]2(O)C13CC(=O)C1(C)C2(C)CO[C@]1(OC(=O)c1ccccc1)[C@@H]3O | inactive |
| CC1=CC[C@]2(O)[C@@]3(C)COC4O[C@](O)(C[C@@]12[C@H]4O)[C@]3(C)O | inactive |
| C[C@@H]1CC[C@@]2(O)C13CC(=O)C1(C)C2(C)CO[C@]1(O)[C@@H]3O | Active |
| C[C@@H]1C[C@@H](O)[C@@]2(O)[C@@]13C[C@@]1(O)OC(OC[C@@]2(C)[C@@]1(C)O)[C@@H]3O | inactive |
| C[C@@H]1CC[C@@]2(O)[C@@]13C[C@@]1(O)OC(OC[C@@]2(C)[C@@]1(C)O)[C@@H]3O | inactive |

Source: ChEMBL document CHEMBL1150810, “Structure and neurotrophic activity of seco-prezizaane-type sesquiterpenes from Illicium merrillianum” (J Nat Prod, 2001)
